Measured values as given in patent publication US20130109693A1, “DERIVATIVES OF PYRIDO [3,2-D] PYRIMIDINE, METHODS FOR PREPARATION THEREOF AND THERAPEUTIC USES THEREOF” (UNIVERSITE D'ORLEANS, priority 2010, published 2013).
pIC50: −log10 of the molar value.

Assays:
DYRK1A = DYRK1A (Homo sapiens, UniProt Q13627); test: DYRK1A kinase inhibition (Woodtide substrate, buffer A); format: biochemical; conditions: 15 μM ATP, 30° C., recombinant GST fusion; read-out: IC50 Kinases DYRK1A
Method: (§1) The activities for inhibiting protein kinases of the compounds of the invention are tested according to the following general procedure:
(§2) Buffer A: 10 mM MgCl2, 1 mM EGTA, 1 mM DTT, 25 mM Tris-HCl pH 7.5 and 50 μg heparin/mL.
(§3) The kinase activities are dosed in buffers A or C, at 30° C., at a final concentration of ATP of 15 μM. The values of the blanks were subtracted and the activities are expressed as a % of the maximum activity, i.e. in the absence of inhibitors. The controls were carried out with suitable dilutions of DMSO.

Caco = test: Cytotoxicity on human cells, Caco (colon); format: cell-based; conditions: exposed 24 h and 48 h, 0.1 to 25 μM
Method: (§4) […] Dosages on Human cells (Huh7, Caco, MDA-MB 231, HCT 116, PC3, NCl, Fibroblast)
(§5) Cytotoxicity: This method is based on an automated imaging analysis. 4.10^3 cells were cultivated on 96-well plates and thus left for 24 hours so that they may bind, be distributed and proliferate.
(§6) These cells were then exposed for 24 h and 48 h to increasing concentrations of the compounds of the invention, from 0.1 to 25 μM in a final volume of 80 μL of culture medium. The cells are then set with a 4% paraformaldehyde solution and the nuclei are colored with Hoechst 3342 and counted according to automated imaging quantification.
(§7) All the cell lines were cultivated in a DMEM or RPMI (Invitrogen) medium. All these media were completed with antibiotics (penicillin-streptomycin)(Lonza) and 10% by volume of foetal calf serum (Invitrogen). The cells were cultivated at 37° C. with 5% of CO2. The treatments with the molecules to be tested were carried out with increasing concentrations. […] The control experiments were also conducted by using suitable dilutions of DMSO (maximum 1% DMSO). Cell viability was determined by measuring the reduction of MTS as described in the article of Ribas J, Boix J. (2004). Cell differentiation caspase inhibition and macromolecular synthesis blockage but not BCL-2 or BCL-XL proteins protect SH-SY5Y cells from apoptosis triggered by two CDK inhibitory drugs. Exp. Cell Res., 295: 9-24.

GSK-3αβ = GSK-3αβ kinase inhibition (GS-1 substrate, buffer A); format: biochemical; conditions: 15 μM ATP, 30° C., native, pig brain; read-out: IC50 Kinases GSK3
Method: as §1, §2, §3
GSK-3αβ (from pig brain, native) was assayed by using a specific substrate of GSK-3 (GS-1: […]pEDEEE)(Sp represents a phosphorylated serine) (Primot, A., Baratte, B., Gompel, M., Borgne, A., Liabeuf, S., Romette, J. L., Costantini, F. and Meijer, L., 2000. Purification of GSK-3 by affinity chromatography on immobilized axin. Protein Expr. & Purif. 20 (3), 394-404). GS-1 was synthesized by Millegen (Labège, France). Its kinase activity was analyzed in the buffer A, with 1 mg of histone H1/mL, in the presence of 15 μM of [γ-^33P] ATP (3,000 Ci/mmol; 10 mCi/mL) in a final volume of 30 μl. After 30 mins of incubation at 30° C., 25 μl of supernatant aliquots were deposited on 2.5×3 cm pieces of phosphocellulose Whatman P81papier, and after 20 seconds, the filters were washed five times (for at least 5 minutes every time) in a solution of 10 mL of phosphoric acid/liter of water. The wet filters were counted in the presence of 1 mL of ACS scintillator fluid (Amersham).

MDA-MB 231 = test: Cytotoxicity on human cells, MDA-MB 231 (breast); format: cell-based; conditions: MDA-MB-231, human cells, exposed 24 h and 48 h, 0.1 to 25 μM
Method: as §4, §5, §6, §7

NCI = test: Cytotoxicity on human cells, NCI (lung); format: cell-based; conditions: exposed 24 h and 48 h, 0.1 to 25 μM
Method: as §4, §5, §6, §7

Huh7 = test: Cytotoxicity on human cells, Huh7 (liver); format: cell-based; conditions: Huh-7, human cells, exposed 24 h and 48 h, 0.1 to 25 μM
Method: as §4, §5, §6, §7

fibroblast = test: Cytotoxicity on human cells, fibroblast; format: cell-based; conditions: exposed 24 h and 48 h, 0.1 to 25 μM
Method: as §4, §5, §6, §7

CDK5 = target: T1, CDK5 (Homo sapiens, UniProt Q00535); test: CDK5 kinase inhibition (histone H1, [γ-33P] ATP, buffer C); format: biochemical; conditions: 15 μM ATP, 30° C., recombinant; read-out: IC50 Kinases CDK5
T1 construct: made in house
Method: as §1
Buffer C: 60 mM β-glycerophosphate, 15 mM p-nitrophenyl-phosphate, 25 mM Mops (pH 7.2), 5 mM EGTA, 15 mM MgCl2, 1 mM DTT, 1 mM of sodium vanadate
as §3
CDK5 (humane, recombinant) was prepared as described earlier (Leclerc, S.; Garnier, M.; Hoessel, R.; Marko, D.; Bibb, J. A.; Snyder, G. L.; Greengard, P.; Biernat, J.; Mandelkow, E.-M.; Eisenbrand, G.; Meijer, L. Indirubins inhibit glycogen synthase kinase-3β and CDK5/p25, two kinases involved in abnormal tau phosphorylation in Alzheimer's disease—A property common to most CDK inhibitors? J. Biol. Chem. 2001, 276, 251-260; Bach S, Knockaert M, Reinhardt J, Lozach O, Schmitt S, Baratte B et al. (2005). Roscovitine targets, protein kinases and pyridoxal kinase. J. Biol Chem 280: 31208-31219). Its kinase activity was analyzed in the buffer C, with 1 mg of histone H1/mL, in the presence of 15 μM of [γ-^33P] ATP (3,000 Ci/mmol; 10 mCi/mL) in a final volume of 30 μl. After 30 mins of incubation at 30° C., 25 μl of supernatant aliquots were deposited on 2.5×3 cm pieces of phosphocellulose Whatman P81 paper, and after 20 seconds, the filters were washed five times (for at least 5 minutes every time) in a solution of 10 mL phosphoric acid/liter of water. The wet filters were counted in the presence of 1 mL of ACS scintillator fluid (Amersham).

PC3 = test: Cytotoxicity on human cells, PC3 (prostate); format: cell-based; conditions: PC-3, human cells, exposed 24 h and 48 h, 0.1 to 25 μM
Method: as §4, §5, §6, §7

HCT 116 = test: Cytotoxicity on human cells, HCT 116 (colon); format: cell-based; conditions: exposed 24 h and 48 h, 0.1 to 25 μM
Method: as §4, §5, §6, §7

T1 sequence (Q00535 whole entry): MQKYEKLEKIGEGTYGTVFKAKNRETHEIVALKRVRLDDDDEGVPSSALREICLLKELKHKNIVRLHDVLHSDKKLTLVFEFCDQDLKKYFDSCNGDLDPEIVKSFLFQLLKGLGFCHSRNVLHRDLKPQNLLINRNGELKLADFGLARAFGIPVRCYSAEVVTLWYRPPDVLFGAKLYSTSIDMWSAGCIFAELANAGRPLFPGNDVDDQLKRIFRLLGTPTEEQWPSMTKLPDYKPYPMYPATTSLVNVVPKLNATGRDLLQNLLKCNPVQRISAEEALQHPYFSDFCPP
T1 sequence (Q15078 99-307 partner limits assumed): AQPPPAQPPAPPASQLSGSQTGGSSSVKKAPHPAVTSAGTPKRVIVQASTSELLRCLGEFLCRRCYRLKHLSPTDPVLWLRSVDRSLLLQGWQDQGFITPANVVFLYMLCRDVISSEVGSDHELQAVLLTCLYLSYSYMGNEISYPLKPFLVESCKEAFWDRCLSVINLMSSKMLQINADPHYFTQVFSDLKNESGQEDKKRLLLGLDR

Compound | pIC50 (DYRK1A) | pIC50 (GSK-3αβ) | melting point [°C] | pIC50 (CDK5) | pIC50 (Caco) | pIC50 (MDA-MB 231) | pIC50 (NCI) | pIC50 (Huh7) | pIC50 (fibroblast) | pIC50 (PC3) | pIC50 (HCT 116)
Oc1ccc(-c2ncc3ncc(Cl)cc3n2)cc1 [Compound 17, 7-Chloro-2-(4-hydroxyphenyl)-pyrido[3,2-d]pyrimidine] | 4.80 | < 4.00 | 231 to 232 | 5.29 | < 4.60 | < 4.60 | < 4.60 | < 4.60 | < 4.60 | < 4.60 | < 4.60
Oc1ccc(-c2cnc3cnc(-c4ccc(O)cc4)nc3c2)cc1 [Compound 20, 2,7-Di-(4-hydroxyphenyl)-pyrido[3,2-d]pyrimidine] | 6.03 | 4.59 |  | 6.92 | 5.15 | < 4.60 | < 4.60 | 4.92 | < 4.60 | 4.60 | 4.92
Oc1cccc(-c2cnc3cnc(-c4cccc(O)c4)nc3c2)c1 [Compound 21, 2,7-Di-(3-hydroxyphenyl)-pyrido[3,2-d]pyrimidine] | 5.47 | < 4.00 | 264 to 265 | 5.59 | 4.70 | < 4.60 | < 4.60 | < 4.60 | < 4.60 | 4.60 | < 4.60
Oc1ccc(-c2ncc3ncc(-c4cccc(O)c4)cc3n2)cc1 [Compound 23, 2-(4-Hydroxyphenyl)-7-(3-hydroxyphenyl)-pyrido[3,2-d]pyrimidine] | 5.62 | < 4.00 | 256 to 257 | 6.96 | 5.40 | < 4.60 | 4.70 | 5.00 | < 4.60 | 5.05 | 5.15
Oc1ccc(-c2ncc3ncc(-c4ccoc4)cc3n2)cc1 [Compound 36] | < 5.00 |  |  |  |  |  |  | < 4.60 | 4.70 | < 4.60 | 5.00
COc1cccc(Nc2cnc3c(NCc4ccccc4)nc(NCCO)nc3c2)c1 [Compound 84, 4-Benzylamino-2-(2-hydroxyethylamino)-7-(3-methoxyphenylamino)-pyrido[3,2-d]pyrimidine] |  |  | 110 to 111 |  | 5.40 | 4.82 | 5.52 | 5.52 | 5.30 | 5.30 | 5.30
OCCNc1nc(NCc2ccccc2)c2ncc(Nc3ncccn3)cc2n1 [Compound 87, 4-Benzylamino-2-(2-hydroxyethylamino)-7-(2-pyrimidinylamino)-pyrido[3,2-d]pyrimidine] |  |  | 141 to 142 |  | 5.10 | 4.82 | 5.22 | 5.15 | 4.82 | 4.82 | 5.22
OCCNc1nc(NCc2ccccc2)c2ncc(Nc3ccc4ncccc4c3)cc2n1 [Compound 90, 4-Benzylamino-2-(2-hydroxyethylamino)-7-(6-quinolinamino)-pyrido[3,2-d]pyrimidine] |  |  | 203 to 204 |  | 5.40 | 5.40 | 5.70 | 5.70 | 5.82 | 5.30 | 5.92

The next lines start with results.

pIC50 (DYRK1A) | pIC50 (GSK-3αβ) | melting point [°C] | pIC50 (CDK5) | Compound | pIC50 (Caco) | pIC50 (MDA-MB 231) | pIC50 (NCI) | pIC50 (Huh7) | pIC50 (fibroblast) | pIC50 (PC3) | pIC50 (HCT 116)
< 5.00 | < 5.00 | 239 to 240 | < 5.00 | Oc1ccccc1-c1cnc2cnc(-c3ccccc3O)nc2c1 [Compound 22, 2,7-Di-(2-hydroxyphenyl)-pyrido[3,2-d]pyrimidine] | < 4.60 | < 4.60 | 5.70 | < 4.60 | < 4.60 | < 4.60 | < 4.60
 |  | 126 to 127 |  | COc1ccc(Nc2cnc3c(NCc4ccccc4)nc(NCCO)nc3c2)cc1 [Compound 83, 4-Benzylamino-2-(2-hydroxyethylamino)-7-(4-methoxyphenylamino)-pyrido[3,2-d]pyrimidine] | 5.10 | 5.00 | 5.22 | 5.30 | 4.82 | 4.92 | 5.30
 |  | 154 to 155 |  | OCCNc1nc(NCc2ccccc2)c2ncc(Nc3cnc4ccccc4c3)cc2n1 [Compound 89, 4-Benzylamino-2-(2-hydroxyethylamino)-7-(3-quinolinamino)-pyrido[3,2-d]pyrimidine] | 5.70 | 5.52 | 5.70 | 5.52 | 5.70 | 5.52 | 6.30
